Data as given in PubChem BioAssay AID2060503 (Molecular Pharmacology Branch, DTP, NCI, 2025).

Test system: 817829-284-R-J1-PDC complex spheroids, viability
Experiment: Anticancer human tumor 817829-284-R-J1-PDC patient-derived colon adenocarcinoma cell line growth inhibition [GQUAD]
Settings: for IC50: curve of first compound; for viability, T/C: stronger effect = lower value
Method in brief: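 Multi-cell-type spheroids of tumor cells with HUVEC and mesenchymal stem cells, treated with drug combinations. Concentrations descend in half-log steps from near clinical Cmax, or from 10 microM where Cmax is unknown; viability read-out.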

[1] = second compound 0.0316 µM, first compound 0.0316 µM
[2] = second compound 0.0316 µM, first compound 0.1 µM
[3] = second compound 0.0316 µM, first compound 0.316 µM
[4] = second compound 0.0316 µM, first compound 1 µM
[5] = second compound 0.0316 µM, first compound 3.16 µM
[6] = second compound 0.0316 µM, first compound 10 µM
[7] = second compound 0.1 µM, first compound 0.0316 µM
[8] = second compound 0.1 µM, first compound 0.1 µM
[9] = second compound 0.1 µM, first compound 0.316 µM
[10] = second compound 0.1 µM, first compound 1 µM
[11] = second compound 0.1 µM, first compound 3.16 µM
[12] = second compound 0.1 µM, first compound 10 µM
[13] = second compound 0.316 µM, first compound 0.0316 µM
[14] = second compound 0.316 µM, first compound 0.1 µM
[15] = second compound 0.316 µM, first compound 0.316 µM
[16] = second compound 0.316 µM, first compound 1 µM
[17] = second compound 0.316 µM, first compound 3.16 µM
[18] = second compound 0.316 µM, first compound 10 µM
[19] = second compound 1 µM, first compound 0.0316 µM
[20] = second compound 1 µM, first compound 0.1 µM
[21] = second compound 1 µM, first compound 0.316 µM
[22] = second compound 1 µM, first compound 1 µM
[23] = second compound 1 µM, first compound 3.16 µM
[24] = second compound 1 µM, first compound 10 µM
[25] = second compound 3.16 µM, first compound 0.0316 µM
[26] = second compound 3.16 µM, first compound 0.1 µM
[27] = second compound 3.16 µM, first compound 0.316 µM
[28] = second compound 3.16 µM, first compound 1 µM
[29] = second compound 3.16 µM, first compound 3.16 µM
[30] = second compound 3.16 µM, first compound 10 µM
[31] = second compound 10 µM, first compound 0.0316 µM
[32] = second compound 10 µM, first compound 0.1 µM
[33] = second compound 10 µM, first compound 0.316 µM
[34] = second compound 10 µM, first compound 1 µM
[35] = second compound 10 µM, first compound 3.16 µM
[36] = second compound 10 µM, first compound 10 µM
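Also: spheroids exposed to agents for 7 days before readout.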
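For viability, T/C in this document: percent viability relative to DMSO vehicle control taken as 100%.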

CC(C)n1c(=O)n(C)c2cnc3cc(F)c(-c4ccc(OCCCN5CCCCC5)nc4)cc3c21 + Cc1cnc(CNC(=O)c2c(=O)c3ccc(N4CCCN(C)CC4)nc3n3c2sc2ccccc23)cn1
IC50 (second compound 0.0316 µM): < 31.6 nM | IC50 (second compound 0.1 µM): < 31.6 nM | IC50 (second compound 0.316 µM): < 31.6 nM | IC50 (second compound 1 µM): < 31.6 nM | IC50 (second compound 3.16 µM): < 31.6 nM | IC50 (second compound 10 µM): < 31.6 nM | viability, T/C [1]: 37.7% | viability, T/C [2]: 32.1% | viability, T/C [3]: 36.5% | viability, T/C [4]: 25.1% | viability, T/C [5]: 26.6% | viability, T/C [6]: 12.1% | viability, T/C [7]: 30.4% | viability, T/C [8]: 27.3% | viability, T/C [9]: 31.3% | viability, T/C [10]: 23.4% | viability, T/C [11]: 22.9% | viability, T/C [12]: 14.6% | viability, T/C [13]: 23.7% | viability, T/C [14]: 28.1% | viability, T/C [15]: 23.1% | viability, T/C [16]: 21.5% | viability, T/C [17]: 24.4% | viability, T/C [18]: 9.33% | viability, T/C [19]: 19.7% | viability, T/C [20]: 21.1% | viability, T/C [21]: 21.9% | viability, T/C [22]: 23.1% | viability, T/C [23]: 24.2% | viability, T/C [24]: 8.09% | viability, T/C [25]: 16.6% | viability, T/C [26]: 18.5% | viability, T/C [27]: 19% | viability, T/C [28]: 21% | viability, T/C [29]: 18.8% | viability, T/C [30]: 7.12% | viability, T/C [31]: 0.15% | viability, T/C [32]: 0.17% | viability, T/C [33]: 0.18% | viability, T/C [34]: 0.17% | viability, T/C [35]: 0.18% | viability, T/C [36]: 0.18%

C=CC(=O)N1CCN(c2nc(=O)n(-c3c(C)ccnc3C(C)C)c3nc(-c4c(O)cccc4F)c(F)cc23)C(C)C1 (stereo unspecified) + Cc1cnc(CNC(=O)c2c(=O)c3ccc(N4CCCN(C)CC4)nc3n3c2sc2ccccc23)cn1
IC50 (second compound 0.0316 µM): 7980 nM | IC50 (second compound 0.1 µM): < 31.6 nM | IC50 (second compound 0.316 µM): < 31.6 nM | IC50 (second compound 1 µM): < 31.6 nM | IC50 (second compound 3.16 µM): < 31.6 nM | IC50 (second compound 10 µM): < 31.6 nM | viability, T/C [1]: 87.4% | viability, T/C [2]: 59.1% | viability, T/C [3]: 90.8% | viability, T/C [4]: 55.7% | viability, T/C [5]: 76.5% | viability, T/C [6]: 44.3% | viability, T/C [7]: 34.2% | viability, T/C [8]: 38.1% | viability, T/C [9]: 30.2% | viability, T/C [10]: 34.2% | viability, T/C [11]: 29.9% | viability, T/C [12]: 26.8% | viability, T/C [13]: 26.6% | viability, T/C [14]: 28.8% | viability, T/C [15]: 28.4% | viability, T/C [16]: 24.9% | viability, T/C [17]: 29.5% | viability, T/C [18]: 20.5% | viability, T/C [19]: 18.8% | viability, T/C [20]: 27.1% | viability, T/C [21]: 22.6% | viability, T/C [22]: 21.1% | viability, T/C [23]: 24.3% | viability, T/C [24]: 19.6% | viability, T/C [25]: 21.8% | viability, T/C [26]: 21.3% | viability, T/C [27]: 22.5% | viability, T/C [28]: 19.1% | viability, T/C [29]: 16.7% | viability, T/C [30]: 16.9% | viability, T/C [31]: 0.19% | viability, T/C [32]: 0.21% | viability, T/C [33]: 0.19% | viability, T/C [34]: 0.19% | viability, T/C [35]: 0.2% | viability, T/C [36]: 0.19%

CC1COCCN1c1cc(C2(S(C)(=N)=O)CC2)nc(-c2ccnc3[nH]ccc23)n1 (stereo unspecified) + CN(C)c1ccc(Nc2c3ccc(NC(=O)CCN4CCCC4)cc3nc3cc(NC(=O)CCN4CCCC4)ccc23)cc1
IC50 (second compound 0.0316 µM): 584 nM | IC50 (second compound 0.1 µM): 616 nM | IC50 (second compound 0.316 µM): 589 nM | IC50 (second compound 1 µM): 566 nM | IC50 (second compound 3.16 µM): 569 nM | IC50 (second compound 10 µM): 391 nM | viability, T/C [1]: 94.2% | viability, T/C [2]: 93.2% | viability, T/C [3]: 75.4% | viability, T/C [4]: 27.5% | viability, T/C [5]: 11.2% | viability, T/C [6]: 7.5% | viability, T/C [7]: 90.1% | viability, T/C [8]: 95.4% | viability, T/C [9]: 82.3% | viability, T/C [10]: 26.4% | viability, T/C [11]: 11.1% | viability, T/C [12]: 7.72% | viability, T/C [13]: 99% | viability, T/C [14]: 96.5% | viability, T/C [15]: 79.8% | viability, T/C [16]: 24.7% | viability, T/C [17]: 9.67% | viability, T/C [18]: 7.15% | viability, T/C [19]: 86% | viability, T/C [20]: 98.5% | viability, T/C [21]: 76% | viability, T/C [22]: 24.1% | viability, T/C [23]: 10.8% | viability, T/C [24]: 7.23% | viability, T/C [25]: 91.4% | viability, T/C [26]: 94.9% | viability, T/C [27]: 70.1% | viability, T/C [28]: 29.9% | viability, T/C [29]: 13% | viability, T/C [30]: 7.64% | viability, T/C [31]: 99.6% | viability, T/C [32]: 87.9% | viability, T/C [33]: 57.1% | viability, T/C [34]: 20.3% | viability, T/C [35]: 9.51% | viability, T/C [36]: 5%
